Reference: ChEMBL document CHEMBL4765312, “Capsaicin derivatives with nitrothiophene substituents: Design, synthesis and antibacterial activity against multidrug-resistant S. aureus” (Eur J Med Chem, 2020)
≈ marks a conversion by molar mass, not a printed value. Calls of active or inactive are those of the source. The rule behind the calls is not given here.

Key:
[1] = system: Staphylococcus aureus; experiment: Bactericidal activity against Staphylococcus aureus Newman strain assessed as reduction in bacterial colonies formation after 24 hrs by crystal violet staining based assay; format: functional, organism-based
[2] = system: Staphylococcus aureus; experiment: Antibacterial activity against multidrug-resistant Staphylococcus aureus NRS108 assessed as reduction in bacterial growth incubated for 16 to 18 hrs by two-fold serial dilution method; format: functional; settings: time 16-18 hrs
[3] = system: Staphylococcus aureus; experiment: Antibacterial activity against Staphylococcus aureus Newman strain assessed as reduction in bacterial growth incubated for 16 to 18 hrs by two fold serial dilution method; format: functional; settings: time 16-18 hrs
[4] = system: Staphylococcus aureus; experiment: Antibacterial activity against multidrug-resistant Staphylococcus aureus NRS271 assessed as reduction in bacterial growth incubated for 16 to 18 hrs by two fold serial dilution method; format: functional; settings: time 16-18 hrs
[5] = system: Staphylococcus aureus; experiment: Antibacterial activity against multidrug-resistant Staphylococcus aureus NRS1 assessed as reduction in bacterial growth incubated for 16 to 18 hrs by two fold serial dilution method; format: functional; settings: time 16-18 hrs
[6] = system: Staphylococcus aureus; experiment: Antibacterial activity against mutidrug-resistant Staphylococcus aureus NRS100 assessed as reduction in bacterial growth incubated for 16 to 18 hrs by two fold serial dilution method; format: functional; settings: time 16-18 hrs
[7] = system: Staphylococcus aureus; experiment: Antibacterial activity against multidrug-resistant Staphylococcus aureus NRS70 assessed as reduction in bacterial growth incubated for 16 to 18 hrs by two fold serial dilution method; format: functional; settings: time 16-18 hrs
[8] = Cytotoxicity against human HEK293T cells assessed as reduction in cell viability measured after 48 hrs by MTT assay; format: cell-based, HEK-293T
[9] = system: Staphylococcus aureus; experiment: Potency index, ratio of vancomycin MIC to test compound MIC for antibacterial activity against mutidrug-resistant Staphylococcus aureus NRS100 assessed as reduction in bacterial growth incubated for 16 to 18 hrs by two fold serial dilution method; format: functional; settings: time 16-18 hrs
[10] = system: Staphylococcus aureus; experiment: Antibiofilm activity against Staphylococcus aureus Newman strain assessed as biofilm formation at 0.78 ug/ml after 24 hrs by crystal violet staining based assay relative to control; format: functional; settings: dose 0.78 µg/ml
[11] = system: Staphylococcus aureus; experiment: Potency index, ratio of vancomycin MIC to test compound MIC for antibacterial activity against multidrug-resistant Staphylococcus aureus NRS108 assessed as reduction in bacterial growth incubated for 16 to 18 hrs by two-fold serial dilution method; format: functional; settings: time 16-18 hrs
[12] = system: Staphylococcus aureus; experiment: Potency index, ratio of vancomycin MIC to test compound MIC for antibacterial activity against multidrug-resistant Staphylococcus aureus NRS1 assessed as reduction in bacterial growth incubated for 16 to 18 hrs by two fold serial dilution method; format: functional; settings: time 16-18 hrs
[13] = system: Staphylococcus aureus; experiment: Potency index, ratio of vancomycin MIC to test compound MIC for antibacterial activity against multidrug-resistant Staphylococcus aureus NRS70 assessed as reduction in bacterial growth incubated for 16 to 18 hrs by two fold serial dilution method; format: functional; settings: time 16-18 hrs
[14] = system: Staphylococcus aureus; experiment: Potency index, ratio of vancomycin MIC to test compound MIC for antibacterial activity against multidrug-resistant Staphylococcus aureus NRS271 assessed as reduction in bacterial growth incubated for 16 to 18 hrs by two fold serial dilution method; format: functional; settings: time 16-18 hrs

SMILES: CN[C@H](CC(C)C)C(=O)N[C@H]1C(=O)N[C@@H](CC(N)=O)C(=O)N[C@H]2C(=O)N[C@H]3C(=O)N[C@H](C(=O)N[C@H](C(=O)O)c4cc(O)cc(O)c4-c4cc3ccc4O)[C@H](O)c3ccc(c(Cl)c3)Oc3cc2cc(c3O[C@@H]2O[C@H](CO)[C@@H](O)[C@H](O)[C@H]2O[C@H]2C[C@](C)(N)[C@H](O)[C@H](C)O2)Oc2ccc(cc2Cl)[C@H]1O [VANCOMYCIN]
- Activity [1]: inactive
- MIC [2]: 0.78 µg/mL (≈ 0.538 µM)
- MIC [3]: 0.78 µg/mL (≈ 0.538 µM)
- MIC [4]: 0.78 µg/mL (≈ 0.538 µM)
- MIC [5]: 1.56 µg/mL (≈ 1.08 µM)
- MIC [6]: 0.78 µg/mL (≈ 0.538 µM)
- MIC [7]: 0.39 µg/mL (≈ 0.269 µM)

SMILES: O=C(NCc1ccc(OC(=O)c2ccc([N+](=O)[O-])s2)c(Cl)c1)c1ccc([N+](=O)[O-])s1
- MIC [2]: 1.56 µg/mL (≈ 3.33 µM)
- MIC [3]: 0.78 µg/mL (≈ 1.67 µM)
- MIC [4]: 1.56 µg/mL (≈ 3.33 µM)
- MIC [5]: 0.78 µg/mL (≈ 1.67 µM)
- MIC [6]: 3.13 µg/mL (≈ 6.69 µM)
- MIC [7]: 0.39 µg/mL (≈ 0.834 µM)

SMILES: O=C(NCc1ccc(OC(=O)c2ccc([N+](=O)[O-])s2)c(C(F)(F)F)c1)c1ccc([N+](=O)[O-])s1
- MIC [3]: 3.13 µg/mL (≈ 6.24 µM)

SMILES: COc1cc(CNC(=O)c2ccc([N+](=O)[O-])s2)ccc1OC(=O)c1cccs1
- MIC [3]: > 50 µg/mL

SMILES: COc1cc(CNC(=O)c2ccc([N+](=O)[O-])o2)ccc1OC(=O)c1ccc([N+](=O)[O-])o1
- MIC [3]: 3.13 µg/mL (≈ 7.26 µM)

SMILES: Cc1cc(CNC(=O)c2ccc([N+](=O)[O-])s2)ccc1OC(=O)c1ccc([N+](=O)[O-])s1
- MIC [2]: 1.56 µg/mL (≈ 3.49 µM)
- MIC [3]: 0.39 µg/mL (≈ 0.872 µM)
- MIC [4]: 0.39 µg/mL (≈ 0.872 µM)
- CC50 at 48 h [8]: 168 µg/mL (≈ 375 µM)
- MIC [5]: 0.39 µg/mL (≈ 0.872 µM)
- MIC [6]: 0.39 µg/mL (≈ 0.872 µM)
- MIC [7]: 0.39 µg/mL (≈ 0.872 µM)

SMILES: O=C(NCc1ccc(OC(=O)c2ccc([N+](=O)[O-])s2)c(F)c1)c1ccc([N+](=O)[O-])s1
- MIC [3]: 3.13 µg/mL (≈ 6.93 µM)

SMILES: O=C(NCc1ccc(Oc2ccc([N+](=O)[O-])s2)cc1)c1ccc([N+](=O)[O-])s1
- MIC [3]: 3.13 µg/mL (≈ 7.72 µM)

SMILES: O=C(NCc1ccc(NC(=O)c2ccc([N+](=O)[O-])s2)cc1)c1ccc([N+](=O)[O-])s1
- MIC [3]: > 50 µg/mL

SMILES: O=C(NCc1ccc(OC(=O)c2ccc([N+](=O)[O-])s2)cc1)c1ccc([N+](=O)[O-])s1
- MIC [2]: 3.13 µg/mL (≈ 7.22 µM)
- MIC [3]: 0.78 µg/mL (≈ 1.8 µM)
- MIC [4]: 1.56 µg/mL (≈ 3.6 µM)
- CC50 at 48 h [8]: 251 µg/mL (≈ 579 µM)
- MIC [5]: 0.78 µg/mL (≈ 1.8 µM)
- MIC [6]: 3.13 µg/mL (≈ 7.22 µM)
- MIC [7]: 0.78 µg/mL (≈ 1.8 µM)

SMILES: COc1cc(CNC(=O)c2ccc([N+](=O)[O-])s2)ccc1OC(=O)/C=C/c1ccc([N+](=O)[O-])s1
- MIC [3]: > 50 µg/mL

SMILES: COc1cc(CNC(=O)/C=C/c2ccc([N+](=O)[O-])s2)ccc1OC(=O)c1ccc([N+](=O)[O-])s1
- MIC [3]: > 50 µg/mL

SMILES: COc1cc(CNC(=O)c2ccc([N+](=O)[O-])s2)ccc1O
- MIC [3]: > 50 µg/mL

SMILES: CCCCCCCCCC(=O)NCc1ccc(OC(=O)c2ccc([N+](=O)[O-])s2)c(OC)c1
- MIC [3]: > 50 µg/mL

SMILES: COc1cc(OC(=O)c2ccc([N+](=O)[O-])s2)ccc1CNC(=O)c1ccc([N+](=O)[O-])s1
- MIC [2]: 1.56 µg/mL (≈ 3.37 µM)
- MIC [3]: 1.56 µg/mL (≈ 3.37 µM)
- MIC [4]: 0.78 µg/mL (≈ 1.68 µM)
- MIC [5]: 0.78 µg/mL (≈ 1.68 µM)
- MIC [6]: 0.78 µg/mL (≈ 1.68 µM)
- MIC [7]: 0.78 µg/mL (≈ 1.68 µM)

SMILES: COc1cc(CNC(=O)c2cccc([N+](=O)[O-])c2)ccc1OC(=O)c1ccc([N+](=O)[O-])s1
- MIC [3]: > 50 µg/mL

SMILES: COc1cc(CNC(=O)c2ccc([N+](=O)[O-])s2)ccc1OC(=O)c1ncc([N+](=O)[O-])n1C
- MIC [3]: > 50 µg/mL

SMILES: O=C(NCc1ccc(OC(=O)c2ccc([N+](=O)[O-])s2)c([N+](=O)[O-])c1)c1ccc([N+](=O)[O-])s1
- MIC [3]: 6.25 µg/mL (≈ 13.1 µM)

SMILES: O=C(NCc1ccc(OC(=O)c2ccc([N+](=O)[O-])s2)c(Br)c1)c1ccc([N+](=O)[O-])s1
- MIC [3]: 6.25 µg/mL (≈ 12.2 µM)

SMILES: O=C(NCc1ccc(-c2noc(-c3ccc([N+](=O)[O-])s3)n2)cc1)c1ccc([N+](=O)[O-])s1
- Activity [1]: Active
- Ratio [9]: 2
- MIC [2]: 0.2 µg/mL (≈ 0.437 µM)
- Activity [10]: 80%
- MIC [3]: 0.78 µg/mL (≈ 1.71 µM)
- Ratio [11]: 2
- MIC [4]: 0.2 µg/mL (≈ 0.437 µM)
- Ratio [12]: 2
- CC50 at 48 h [8]: 126 µg/mL (≈ 276 µM)
- Ratio [13]: 2
- MIC [5]: 0.39 µg/mL (≈ 0.853 µM)
- Ratio [14]: 2
- MIC [6]: 0.39 µg/mL (≈ 0.853 µM)
- MIC [7]: 0.2 µg/mL (≈ 0.437 µM)

SMILES: COc1cc(CNC(=O)c2ccc([N+](=O)[O-])s2)cc(OC)c1OC(=O)c1ccc([N+](=O)[O-])s1
- MIC [3]: 3.13 µg/mL (≈ 6.34 µM)

SMILES: COc1cc(CNC(=O)c2ccc([N+](=O)[O-])s2)ccc1OC(=O)c1cccc([N+](=O)[O-])c1
- MIC [3]: > 50 µg/mL

SMILES: NC[C@H]1O[C@H](O[C@H]2[C@H](O)[C@@H](O[C@H]3O[C@H](CO)[C@@H](O)[C@H](N)[C@H]3O)[C@H](N)C[C@@H]2N)[C@H](O)[C@@H](O)[C@@H]1O [KANAMYCIN]
- MIC [2]: > 50 µg/mL
- MIC [3]: 3.13 µg/mL (≈ 6.46 µM)
- MIC [4]: 3.13 µg/mL (≈ 6.46 µM)
- MIC [5]: > 50 µg/mL
- MIC [6]: 1.56 µg/mL (≈ 3.22 µM)
- MIC [7]: > 50 µg/mL

SMILES: COc1cc(CNC(=O)c2cccs2)ccc1OC(=O)c1ccc([N+](=O)[O-])s1
- MIC [3]: > 50 µg/mL

SMILES: COc1cc(CNC(=O)c2ccc([N+](=O)[O-])o2)ccc1OC(=O)c1ccc([N+](=O)[O-])s1
- MIC [3]: 3.13 µg/mL (≈ 7 µM)

SMILES: O=C(Nc1ccc([N+](=O)[O-])s1)c1ccc(CNC(=O)c2ccc([N+](=O)[O-])s2)cc1
- MIC [3]: > 50 µg/mL

SMILES: CN(Cc1ccc(N(C)C(=O)c2ccc([N+](=O)[O-])s2)cc1)C(=O)c1ccc([N+](=O)[O-])s1
- MIC [3]: 6.25 µg/mL (≈ 13.6 µM)

SMILES: COc1cc(CNC(=O)c2ccc([N+](=O)[O-])s2)ccc1OC(=O)c1ccc([N+](=O)[O-])s1
- MIC [2]: 1.56 µg/mL (≈ 3.37 µM)
- MIC [3]: 1.56 µg/mL (≈ 3.37 µM)
- MIC [4]: 0.78 µg/mL (≈ 1.68 µM)
- CC50 at 48 h [8]: 61 µg/mL (≈ 132 µM)
- MIC [5]: 0.78 µg/mL (≈ 1.68 µM)
- MIC [6]: 0.78 µg/mL (≈ 1.68 µM)
- MIC [7]: 0.78 µg/mL (≈ 1.68 µM)

SMILES: COc1cc(CNC(=O)CCCC/C=C/C(C)C)ccc1O [CAPSAICIN]
- MIC [3]: > 50 µg/mL

SMILES: COc1cc(CNC(=O)c2ccc([N+](=O)[O-])s2)ccc1OC(=O)c1ccc([N+](=O)[O-])o1
- MIC [3]: 6.25 µg/mL (≈ 14 µM)

SMILES: COc1cc(CNC(=O)c2ncc([N+](=O)[O-])n2C)ccc1OC(=O)c1ccc([N+](=O)[O-])s1
- MIC [3]: > 50 µg/mL
